Values of other authors in US8153109B2, “Alkylene carbonate dilution, alkylene carbonate for preparing the dilution, and aqueous reducing chemical agent” (San-Ei Kagaku Co., Ltd., priority 2006, dated 2012).

Conditions: test day 10, emulsified chemical agent, in some cases

O=C1OCCC1S (stereo not shown) [2-mercapto-4-butyrolactone]
percent decomposition of 2-mercapto-4-butyrolactone: about 30%
